Our source for the IC50 values is patent US8138168B1 (Takeda Pharmaceutical Company Limited, priority 2007, dated 2012).

This assay addresses T1, Recombinant human renin (Homo sapiens, UniProt P00797).
T1 construct: isolate the active form (residues 67-406); made in house; host or cells: FreeStyle 293-F cells (transient expression of pcDNA3.1(+)/hREN)
T1 sequence (P00797 67-406): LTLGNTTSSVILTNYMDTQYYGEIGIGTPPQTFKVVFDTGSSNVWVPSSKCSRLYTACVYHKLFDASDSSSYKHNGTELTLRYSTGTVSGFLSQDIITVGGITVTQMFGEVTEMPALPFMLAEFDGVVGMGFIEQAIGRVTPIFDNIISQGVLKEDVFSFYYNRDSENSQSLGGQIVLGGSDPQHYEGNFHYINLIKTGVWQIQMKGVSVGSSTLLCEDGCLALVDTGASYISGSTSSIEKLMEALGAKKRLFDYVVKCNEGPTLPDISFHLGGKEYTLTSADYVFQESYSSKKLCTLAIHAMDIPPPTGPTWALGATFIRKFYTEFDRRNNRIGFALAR
The experiment in a line: In vitro enzymatic activity assay of renin inhibitors (fluorogenic peptide substrate). Conditions: read-out: IC50 of Exemplified Compounds Against Renin. The format is biochemical. In short, it runs like this: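 Recombinant human renin (3 nM final) pre-incubated 10 min at 37 °C with compounds in pH 7.4 Hepes/EDTA/DTT/0.1 mg/mL BSA/Brij35 buffer (optionally plus 2% BSA), 5% DMSO final; fluorogenic QXL520/HiLyteFluo488 peptide substrate added.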
Turning to `COCCCn1c([C@@H]2CCCN(C(=O)C[C@H](N)Cc3ccc(-c4ccc5c(c4)OC(F)(F)O5)cc3)C2)nc2c(F)cccc21` [Compound 454, (R)-3-amino-4-(4-(2,2-difluorobenzo[d][1,3]dioxol-5-yl)phenyl)-1-((R)-3-(4-fluoro-1-(3-methoxypropyl)-1H-benzo[d]imidazol-2-yl)piperidin-1-yl)butan-1-one], the concentration for half-maximal inhibition (IC50) was under 100 nM. Consider `COCCCn1c([C@@H]2CCCN(C(=O)C[C@H](N)Cc3ccc(-c4ccc5c(c4)OCCO5)cc3)C2)nc2c(F)cccc21` [Compound 455, (R)-3-amino-4-(4-(2,3-dihydrobenzo[b][1,4]dioxin-6-yl)phenyl)-1-((R)-3-(4-fluoro-1-(3-methoxypropyl)-1H-benzo[d]imidazol-2-yl)piperidin-1-yl)butan-1-one], for which the IC50 is under 100 nM.

For `COCCCn1c([C@@H]2CCCN(C(=O)C[C@H](N)Cc3ccc(-c4cnc(N)nc4)cc3)C2)nc2c(F)cccc21` [Compound 456, (R)-3-amino-4-(4-(2-aminopyrimidin-5-yl)phenyl)-1-((R)-3-(4-fluoro-1-(3-methoxypropyl)-1H-benzo[d]imidazol-2-yl)piperidin-1-yl)butan-1-one], the IC50 was under 100 nM. Regarding `COC(=O)Nc1ccc(-c2ccc(C[C@@H](N)CC(=O)N3CCC[C@@H](c4nc5ccccc5n4CCNC(C)=O)C3)cc2)cc1` [Compound 457, methyl 4′-((R)-4-((R)-3-(1-(2-acetamidoethyl)-1H-benzo[d]imidazol-2-yl)piperidin-1-yl)-2-amino-4-oxobutyl)biphenyl-4-ylcarbamate], the half-inhibitory concentration (IC50) was under 100 nM.

Turning to `COCCCn1c([C@@H]2CCCN(C(=O)C[C@H](N)Cc3ccc(-c4ccc5c(c4)CC(=O)N5)cc3)C2)nc2c(F)cccc21` [Compound 458, 5-(4-((R)-2-amino-4-((R)-3-(4-fluoro-1-(3-methoxypropyl)-1H-benzo[d]imidazol-2-yl)piperidin-1-yl)-4-oxobutyl)phenyl)indolin-2-one], the IC50 was under 100 nM. The figure for `COCCCn1c([C@@H]2CCCN(C(=O)C[C@H](N)Cc3ccc(-c4ccc5c(c4)NC(=O)C5)cc3)C2)nc2c(F)cccc21` [Compound 459, 6-(4-((R)-2-amino-4-((R)-3-(4-fluoro-1-(3-methoxypropyl)-1H-benzo[d]imidazol-2-yl)piperidin-l-yl)-4-oxobutyl)phenyl)indolin-2-one] is under 100 nM; for `COCCCn1c([C@@H]2CCCN(C(=O)C[C@H](N)Cc3ccc(-c4ccc5oc(=O)[nH]c5c4)cc3)C2)nc2c(F)cccc21` [Compound 460, 5-(4-((R)-2-amino-4-((R)-3-(4-fluoro-1-(3-methoxypropyl)-1H-benzo[d]imidazol-2-yl)piperidin-1-yl)-4-oxobutyl)phenyl)benzo[d]oxazol-2(3H)-one] it is under 100 nM; for `CC(=O)NCCn1c([C@@H]2CCCN(C(=O)C[C@H](N)Cc3ccc(-c4ccnc(O)c4)cc3)C2)nc2ccccc21` [Compound 461, N-(2-(2-((R)-1-((R)-3-amino-4-(4-(2-hydroxypyridin-4-yl)phenyl)butanoyl)piperidin-3-yl)-1H-benzo[d]imidazol-1-yl)ethyl)acetamide] it is 100 to 1000 nM. `CC(=O)NCCn1c([C@@H]2CCCN(C(=O)C[C@H](N)Cc3ccc(-c4ccc(N5CCNC5=O)cc4)cc3)C2)nc2ccccc21` [Compound 462, N-(2-(2-((R)-1-((R)-3-amino-4-(4′-(2-oxoimidazolidin-l-yl)biphenyl-4-yl)butanoyl)piperidin-3-yl)-1H-benzo[d]imidazol-1-yl)ethyl)acetamide]: the IC50 is 100 to 1000 nM.

Turning to `COCCCn1c([C@@H]2CCCN(C(=O)C[C@H](N)Cc3ccc(-c4ccc5oc(N)nc5c4)cc3)C2)nc2c(F)cccc21` [Compound 463, (R)-3-amino-4-(4-(2-aminobenzo[d]oxazol-5-yl)phenyl)-1-((R)-3-(4-fluoro-1-(3-methoxypropyl)-1H-benzo[d]imidazol-2-yl)piperidin-1-yl)butan-1-one], the half-maximal inhibitory concentration (IC50) was under 100 nM. Take `CC(=O)NCCn1c([C@@H]2CCCN(C(=O)C[C@H](N)Cc3ccc(-c4ccc5c(c4)SCC(=O)O5)cc3)C2)nc2ccccc21` [Compound 464, N-(2-(2-((R)-1-((R)-3-amino-4-(4-(2-oxo-2,3-dihydrobenzo[b][1,4]oxathiin-6-yl)phenyl)butanoyl)piperidin-3-yl)-1H-benzo[d]imidazol-1-yl)ethyl)acetamide]: the IC50 is under 100 nM.

As for `CC(=O)NCCn1c([C@@H]2CCCN(C(=O)C[C@H](N)Cc3ccc(-c4ccc5c(c4)CC(=O)N5)cc3)C2)nc2ccccc21` [Compound 465, N-(2-(2-((R)-1-((R)-3-amino-4-(4-(2-oxoindolin-5-yl)phenyl)butanoyl)piperidin-3-yl)-1H-benzo[d]imidazol-1-yl)ethyl)acetamide], the IC50 is under 100 nM. Under `CC(=O)NCCn1c([C@@H]2CCCN(C(=O)C[C@H](N)Cc3ccc(-c4ccc5c(c4)NC(=O)C5)cc3)C2)nc2ccccc21` [Compound 466, N-(2-(2-((R)-1-((R)-3-amino-4-(4-(2-oxoindolin-6-yl)phenyl)butanoyl)piperidin-3-yl)-1H-benzo[d]imidazol-1-yl)ethyl)acetamide] stands 100 to 1000 nM.

Regarding `CC(=O)NCCn1c([C@@H]2CCCN(C(=O)C[C@H](N)Cc3ccc(-c4ccc5oc(=O)[nH]c5c4)cc3)C2)nc2ccccc21` [Compound 467, N-(2-(2-((R)-1-((R)-3-amino-4-(4-(2-oxo-2,3-dihydrobenzo[d]oxazol-5-yl)phenyl)butanoyl)piperidin-3-yl)-1H-benzo[d]imidazol-1-yl)ethyl)acetamide], the IC50 lay in the range of 100 to 1000 nM. Consider `CC(=O)NCCn1c([C@@H]2CCCN(C(=O)C[C@H](N)Cc3ccc(-c4ccc5c(c4)NC(=O)CO5)cc3)C2)nc2ccccc21` [Compound 469], for which the IC50 was in the range of 100 to 1000 nM. On to `CC(=O)NCCn1c([C@@H]2CCCN(C(=O)C[C@H](N)Cc3ccc(-c4cnc(N)nc4)cc3)C2)nc2c(Cl)cccc21` [Compound 470, N-(2-(2-((R)-1-((R)-3-amino-4-(4-(2-aminopyrimidin-5-yl)phenyl)butanoyl)piperidin-3-yl)-4-chloro-1H-benzo[d]imidazol-1-yl)ethyl)acetamide], for which the IC50 lay in the range of 100 to 1000 nM.

`CC(=O)NCCn1c([C@@H]2CCCN(C(=O)C[C@H](N)Cc3ccc(-c4ccc(N)nc4)cc3)C2)nc2c(C)cccc21` [Compound 471, N-(2-(2-((R)-1-((R)-3-amino-4-(4-(6-aminopyridin-3-yl)phenyl)butanoyl)piperidin-3-yl)-4-methyl-1H-benzo[d]imidazol-1-yl)ethyl)acetamide]: the IC50 was in the range of 100 to 1000 nM. For `CC(=O)NCCn1c([C@@H]2CCCN(C(=O)C[C@H](N)Cc3ccc(-c4cnc(N)nc4)cc3)C2)nc2c(C)cccc21` [Compound 472, N-(2-(2-((R)-1-((R)-3-amino-4-(4-(2-aminopyrimidin-5-yl)phenyl)butanoyl)piperidin-3-yl)-4-methyl-1H-benzo[d]imidazol-1-yl)ethyl)acetamide], the IC50 is 100 to 1000 nM. As to `CC(=O)NCCn1c([C@@H]2CCCN(C(=O)C[C@H](N)Cc3ccc(-c4ccc(O)nc4)cc3)C2)nc2c(C)cccc21` [Compound 473, N-(2-(2-((R)-1-((R)-3-amino-4-(4-(6-hydroxypyridin-3-yl)phenyl)butanoyl)piperidin-3-yl)-4-methyl-1H-benzo[d]imidazol-1-yl)ethyl)acetamide], the IC50 lay in the range of 100 to 1000 nM. With `CC(=O)NCCn1c([C@@H]2CCCN(C(=O)C[C@H](N)Cc3ccc(-c4ccc5c(c4)OC(F)(F)O5)cc3)C2)nc2c(C)cccc21` [Compound 474, N-(2-(2-((R)-1-((R)-3-amino-4-(4-(2,2-difluorobenzo[d][1,3]dioxol-5-yl)phenyl)butanoyl)piperidin-3-yl)-4-methyl-1H-benzo[d]imidazol-1-yl)ethyl)acetamide], the IC50 fell in the range of 100 to 1000 nM. As to `CC(=O)NCCn1c([C@@H]2CCCN(C(=O)C[C@H](N)Cc3ccc(-c4ccc5c(c4)OCCN5C)cc3)C2)nc2c(C)cccc21` [Compound 475, N-(2-(2-((R)-1-((R)-3-amino-4-(4-(4-methyl-3,4-dihydro-2H-benzo[b][1,4]oxazin-7-yl)phenyl)butanoyl)piperidin-3-yl)-4-methyl-1H-benzo[d]imidazol-1-yl)ethyl)acetamide], the IC50 lay within 100 to 1000 nM.

As to `CC(=O)NCCn1c([C@@H]2CCCN(C(=O)C[C@H](N)Cc3ccc(-c4ccc5c(c4)OCCO5)cc3)C2)nc2c(C)cccc21` [Compound 477, N-(2-(2-((R)-1-((R)-3-amino-4-(4-(2,3-dihydrobenzo[b][1,4]dioxin-6-yl)phenyl)butanoyl)piperidin-3-yl)-4-methyl-1H-benzo[d]imidazol-1-yl)ethyl)acetamide], the IC50 lay in the range of 100 to 1000 nM. Under `CC(=O)NCCn1c([C@@H]2CCCN(C(=O)C[C@H](N)Cc3ccc(-c4ccc(O)nc4)cc3)C2)nc2c(Cl)cccc21` [Compound 478, N-(2-(2-((R)-1-((R)-3-amino-4-(4-(6-hydroxypyridin-3-yl)phenyl)butanoyl)piperidin-3-yl)-4-chloro-1H-benzo[d]imidazol-1-yl)ethyl)acetamide] stands 100 to 1000 nM; under `CC(=O)NCCn1c([C@@H]2CCCN(C(=O)C[C@H](N)Cc3ccc(-c4ccc(N)nc4)cc3)C2)nc2c(Cl)cccc21` [Compound 479, N-(2-(2-((R)-1-((R)-3-amino-4-(4-(6-aminopyridin-3-yl)phenyl)butanoyl)piperidin-3-yl)-4-chloro-1H-benzo[d]imidazol-1-yl)ethyl)acetamide], under 100 nM.

The IC50 is the point on the concentration scale where inhibition reaches its midpoint.
